Laboratory results reported in ChEMBL document CHEMBL1145232, “Synthesis of the naphthalene-derived inhibitors against Cdc25A dual-specificity protein phosphatase and their biological activity” (Bioorg Med Chem Lett, 2005).
Converted amounts (≈) assume the structure as drawn.

Assay: In vitro inhibitory concentration against Cdc25A protein phosphatase

Row | SMILES | IC50
1 | CCC(O)c1c(C/C=C/CO)cc2c(c1OC)C(=O)C=C(NC)C2=O (stereo unspecified) | > 10 µg/mL
2 | CCCCC(O)c1c(C/C=C/CO)cc2c(c1O)C(=O)C=C(OC)C2=O (stereo unspecified) | 1.51 µg/mL (≈ 4.19 µM)
3 | CNC1=CC(=O)c2c(OC)cc(C[C@@H]3CCOC(C)(C)O3)cc2C1=O | > 10 µg/mL
4 | CNC1=CC(=O)c2c(OC)cc(COC)cc2C1=O | > 10 µg/mL
5 | CCC(O)c1c(C/C=C/CO)cc2c(c1OC)C(=O)C=C(OC)C2=O (stereo unspecified) | 1.86 µg/mL (≈ 5.37 µM)
6 | CCCCC(O)c1c(C/C=C/CO)cc2c(c1O)C(O)=C/C(=N\C)C2=O (stereo unspecified) | > 10 µg/mL
7 | CCCC[C@H]1O[C@@H](CC(=O)O)Cc2cc3c(c(O)c21)C(=O)C=C(NC)C3=O (racemic) | >= 10 ug ml-1
8 | CCCCCC(O)c1c(C/C=C/CO)cc2c(c1OC)C(=O)C=C(OC)C2=O (stereo unspecified) | 1.6 µg/mL (≈ 4.12 µM)
9 | CNC1=CC(=O)c2c(cc(C/C=C/CO)c(C(O)c3ccccc3)c2OC)C1=O (stereo unspecified) | > 10 µg/mL
10 | CCCCC(O)c1c(C/C=C/CO)cc2c(c1OC)C(=O)C=C(OC)C2=O (stereo unspecified) | 1.77 µg/mL (≈ 4.73 µM)
11 | COC1=CC(=O)c2c(OC)cc(C[C@@H]3CCOC(C)(C)O3)cc2C1=O | 0.4 µg/mL (≈ 1.15 µM)
12 | CCCCC(O)c1c(C/C=C/CO)cc2c(OC)c(OC)cc(OCc3ccccc3)c2c1OC (stereo unspecified) | > 10 µg/mL
13 | CCCCCC(O)c1c(C/C=C/CO)cc2c(c1OC)C(=O)C=C(NC)C2=O (stereo unspecified) | > 10 µg/mL
14 | COC1=CC(=O)c2c(cc(C/C=C/CO)c(C(O)c3ccccc3)c2OC)C1=O (stereo unspecified) | 2.74 µg/mL (≈ 6.95 µM)
15 | COc1cc(OCc2ccccc2)c2c(OC)cc(C[C@@H]3CCOC(C)(C)O3)cc2c1OC | > 10 µg/mL
16 | COC1=CC(=O)c2c(OC)cc(OC)cc2C1=O | 0.4 µg/mL (≈ 1.61 µM)
